Assay results from BindingDB's records for patent US20230382863 (Ikena Oncology, 2023).

What follows are compounds tested against Mitogen-activated protein kinase kinase kinase 1/RAF proto-oncogene serine/threonine-protein kinase (Homo sapiens, UniProt P04049+Q02750) (assay: AlphaLISA Assay).
Mitogen-activated protein kinase kinase kinase 1/RAF proto-oncogene serine/threonine-protein kinase, sequence (P04049 whole entry): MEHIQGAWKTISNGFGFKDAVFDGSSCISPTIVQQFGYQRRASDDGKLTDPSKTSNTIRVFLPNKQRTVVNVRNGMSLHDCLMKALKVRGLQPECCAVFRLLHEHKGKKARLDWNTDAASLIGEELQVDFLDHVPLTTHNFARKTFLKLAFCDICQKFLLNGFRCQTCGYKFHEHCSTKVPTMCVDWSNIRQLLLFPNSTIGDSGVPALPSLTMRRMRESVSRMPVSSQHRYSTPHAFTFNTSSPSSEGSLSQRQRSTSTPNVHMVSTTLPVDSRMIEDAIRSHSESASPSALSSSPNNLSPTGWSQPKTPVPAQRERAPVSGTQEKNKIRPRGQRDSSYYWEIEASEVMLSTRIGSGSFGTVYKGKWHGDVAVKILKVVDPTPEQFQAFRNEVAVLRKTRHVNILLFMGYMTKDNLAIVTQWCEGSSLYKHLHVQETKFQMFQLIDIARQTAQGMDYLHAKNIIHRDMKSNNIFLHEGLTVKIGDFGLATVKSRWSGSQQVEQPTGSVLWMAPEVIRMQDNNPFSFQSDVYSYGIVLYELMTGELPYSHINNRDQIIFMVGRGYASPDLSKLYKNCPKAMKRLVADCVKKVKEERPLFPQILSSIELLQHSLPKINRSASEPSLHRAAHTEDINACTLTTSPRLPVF
Mitogen-activated protein kinase kinase kinase 1/RAF proto-oncogene serine/threonine-protein kinase, sequence (Q13233 whole entry, further chain): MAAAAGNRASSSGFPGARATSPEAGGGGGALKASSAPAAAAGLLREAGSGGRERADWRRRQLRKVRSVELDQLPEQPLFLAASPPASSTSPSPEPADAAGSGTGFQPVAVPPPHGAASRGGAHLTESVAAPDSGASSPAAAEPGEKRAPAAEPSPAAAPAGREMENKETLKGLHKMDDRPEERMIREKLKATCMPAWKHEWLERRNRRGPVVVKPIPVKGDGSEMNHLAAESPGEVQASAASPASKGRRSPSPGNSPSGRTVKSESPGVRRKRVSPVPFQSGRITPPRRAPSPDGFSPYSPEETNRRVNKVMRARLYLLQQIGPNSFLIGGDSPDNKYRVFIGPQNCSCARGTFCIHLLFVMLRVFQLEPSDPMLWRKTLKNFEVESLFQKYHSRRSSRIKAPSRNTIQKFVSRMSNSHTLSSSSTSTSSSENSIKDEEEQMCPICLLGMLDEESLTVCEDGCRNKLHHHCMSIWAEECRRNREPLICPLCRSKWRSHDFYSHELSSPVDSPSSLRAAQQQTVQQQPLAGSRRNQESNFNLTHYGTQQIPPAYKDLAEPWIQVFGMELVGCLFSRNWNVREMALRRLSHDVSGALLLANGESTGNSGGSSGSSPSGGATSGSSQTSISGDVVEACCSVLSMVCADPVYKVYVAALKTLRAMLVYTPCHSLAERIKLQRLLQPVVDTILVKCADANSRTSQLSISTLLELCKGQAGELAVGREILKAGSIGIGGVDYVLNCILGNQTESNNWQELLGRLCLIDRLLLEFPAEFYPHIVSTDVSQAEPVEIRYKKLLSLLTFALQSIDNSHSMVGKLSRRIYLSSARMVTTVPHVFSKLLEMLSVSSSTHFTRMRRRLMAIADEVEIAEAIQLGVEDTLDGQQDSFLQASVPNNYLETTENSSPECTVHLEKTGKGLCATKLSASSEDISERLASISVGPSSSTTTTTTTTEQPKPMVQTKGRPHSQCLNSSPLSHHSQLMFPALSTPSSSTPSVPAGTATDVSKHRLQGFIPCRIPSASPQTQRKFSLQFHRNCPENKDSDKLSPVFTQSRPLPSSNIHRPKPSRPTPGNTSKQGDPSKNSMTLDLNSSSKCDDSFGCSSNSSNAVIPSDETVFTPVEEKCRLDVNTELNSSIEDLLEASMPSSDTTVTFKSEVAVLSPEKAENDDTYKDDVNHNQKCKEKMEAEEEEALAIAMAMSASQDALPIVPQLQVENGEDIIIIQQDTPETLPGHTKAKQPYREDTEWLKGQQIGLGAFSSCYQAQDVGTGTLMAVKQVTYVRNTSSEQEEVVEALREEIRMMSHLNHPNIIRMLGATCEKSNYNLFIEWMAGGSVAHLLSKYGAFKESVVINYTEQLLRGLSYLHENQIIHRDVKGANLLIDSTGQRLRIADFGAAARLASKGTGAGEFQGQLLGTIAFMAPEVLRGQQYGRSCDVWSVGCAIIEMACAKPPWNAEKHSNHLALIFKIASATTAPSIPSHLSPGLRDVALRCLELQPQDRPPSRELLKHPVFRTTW
Procedure: 5 μL 4×MEK1 stock solution was added to wells A1-P20 by multichannel pipettes. […] 5 μL 4×CRAF stock solution at different concentrations or 5 μL or 10 μL AlphaLISA buffer was added by multichannel pipettes. The plate was sealed, centrifuged at 1000 rpm for 1 minute, and incubated at room temperature for 60 minutes. 5 μL 4×glutathione acceptor beads were first added to all wells by multichannel pipettes. The ambient light was subsequently adjusted to <100 lux (light meter) before adding 5 μL 4×nickel chelate donor beads to the same wells. From this step on, the plate was covered with a black plate cover, centrifuged at 1000 rpm for 1 minute, and incubated at room temperature for 60 minutes.
Compound `CNS(=O)(=O)Nc1cccc(Oc2c(C(=O)NC(C)C)c(Nc3ccc(I)cc3F)n(C)c(=O)c2C)c1Cl` [US20230382863, Compound I-41] has a Kd of 480 pM.
With `COCCNS(=O)(=O)Nc1cccc(Oc2c(C(=O)NC3CC3)c(Nc3ccc(I)cc3F)n(C)c(=O)c2C)c1Cl` [US20230382863, Compound I-55] the Kd was 510 pM.
For `CCNC(=O)c1c(Oc2cccc(NS(=O)(=O)NC)c2Cl)c(C)c(=O)n(C)c1Nc1ccc(I)cc1F` [US20230382863, Compound I-54], the Kd was 350 pM.
With `CNS(=O)(=O)Nc1cccc(Oc2c(C(=O)NC3CC3)c(Nc3ccc(I)cc3F)n(C)c(=O)c2C)c1OC(F)(F)F` [US20230382863, Compound I-40] the Kd was 470 pM.
With `CNS(=O)(=O)Nc1cccc(Oc2c(C(=O)NCC(F)(F)F)c(Nc3ccc(I)cc3F)n(C)c(=O)c2C)c1Cl` [US20230382863, Compound I-45] the Kd was 380 pM.
With `CNS(=O)(=O)Nc1cccc(Oc2c(C(=O)NC3CC3)c(Nc3ccc(I)cc3F)n(C)c(=O)c2C)c1OC` [US20230382863, Compound I-1] the Kd was 420 pM.
Work on `CCNS(=O)(=O)Nc1cccc(Oc2c(C(=O)NC3CC3)c(Nc3ccc(I)cc3F)n(C)c(=O)c2C)c1Cl` [US20230382863, Compound I-43] yielded a Kd of 510 pM.
Work on `Cc1c(Oc2cccc(NS(=O)(=O)NC3CC3)c2Cl)c(C(=O)NC2CC2)c(Nc2ccc(I)cc2F)n(C)c1=O` [US20230382863, Compound I-42] yielded a Kd of 570 pM.
